What was measured:
Kv1.3 channel = Kv1.3 channel (Homo sapiens, UniProt P22001); assay: Inhibition of the Kv1.3 channel, patch clamp method; assay type: cell-based
Description: Furthermore, the invention deals with ion channels that constitute a set of molecular targets through which these 3-deoxyflavonoids exert their biological effects. The flavonoid compounds of this invention can lower and stabilize blood glucose levels in Type-I and Type-II diabetics, and can also ameliorate symptoms of lupus erythematosus, an autoimmune disease affecting several organs. Type-I diabetes is an autoimmune disease in which autoreactive lymphocytes destroy pancreatic P-cells, while the etiology of Type-II diabetes is due to inadequate insulin production and decreased ability of insulin to affect its target end-organs. Since ion channels play a critical role in lymphocytes and in pancreatic β-cell signaling, it is most likely that at least some of the therapeutic effects of flavonoids may arise through blockade of ion channels. […] The non-toxic nature of these flavonoids in humans makes them attractive as nutraceuticals that could complement or replace existing medications and therapies. Inhibition of the Kv1.3 channel was performed utilizing the patch clamp method desctribed by […]. Biol. Chem. 276: 12249.

[1] = test system: cytotoxic T lymphocyte line CTL264; assay: CTL cytotoxicity against 264 peptide-pulsed T2 target cells (calcein release); assay type: cell-based; conditions: for inhibition of calcein release: FIG. 3
Protocol: A cytotoxic T lymphocyte line (CTL—designated CTL264) specific for a peptide antigen (aa 264-272, referred to as the 264 peptide) derived from the tumor suppressor protein p53 was used as a […] to test if luteolin had any effect on CTL cytotoxicity against 264 peptide-pulsed T2 target cells. T2 target cells were pulsed with 264 peptide for 2 hours and labeled with Calcein-AM for 30 minutes and washed three times. Mixtures of T2 cells and CTL264 were incubated for 4 hours. 100 μL supernatants were transferred to a 96-well flat-bottom microtiter plates to read fluorescence (538 nm) to measure calcein release due to cell lysis.
The spontaneous calcein release in cytotoxic T Lymphocytes was determined by incubation of targets in RPMI-10. The maximal calcein release was determined by incubation of targets in Triton X-100. Data are reported as the mean of triplicate determinations.

[2] = test system: chronic Type I (BBWor) diabetic rats; assay: Blood glucose in chronic Type I (BBWor) diabetic rats; assay type: in vivo, rat; conditions: for blood glucose after treatment: 6 hours; for blood glucose before treatment: time 0; for decrease in blood glucose levels: within 6 hours of a single treatment (luteolin 3 mg intragastrically; PZI insulin subcutaneous)
Protocol: The effect of Luteolin treatment in chronic Type I (BBWor) diabetic rats was examined. In this study, lean male diabetic rats were randomly assigned to 3 treatment groups (3-4 rats/group). Each group received either: (1) 3 mg dose of luteolin intragastrically; (2) a subcutaneous injection of PZI insulin (0.9-1.2 mU/day); or (3) no treatment. Blood glucose was evaluated from time 0 through 6 hours. The data was expressed as average blood glucose relative to time post treatment.

[3] = test system: chronic Type 2 diabetic rats; assay: Blood glucose in chronic Type 2 diabetic rats, 24 hr dose study; assay type: in vivo, rat
Protocol: Luteolin was also evaluated for its effect to reduce hyperglycemia in chronic Type 2 diabetic rats. In this study, the dose and frequency of Luteolin treatment was increased to compensate for the enhanced metabolism of the obese rat. First, a 24 hour baseline study was performed on 9 chronic Type 2 rats. […] These same rats were randomly assigned to 3 groups and given 50, 150 and 250 mg doses of Luteolin at three times during the 24 hr period (11 AM, 2 PM and 8 PM). Blood glucose analysis was evaluated every 2 hours.

[4] = test system: obese Type II (BBZDR) diabetic rats; assay: Blood glucose in Type II BBZDR rats, two weeks of treatment; assay type: in vivo, rat
Protocol: In this example, the dose of luteolin was standardized to 50 mg three times per day in the same group of Type II BBZDR rats from Example 5 over an extended period of treatment of two weeks. […] The data was expressed for each rat as a percentage change in blood glucose level relative to each individual pre-treatment level.

[5] = cited from earlier work
[6] = 50 mg three times per day for two weeks
[7] = fried onions, equivalent to 64 mg quercetin aglycone

Chain of Kv1.3 channel (P22001 whole entry): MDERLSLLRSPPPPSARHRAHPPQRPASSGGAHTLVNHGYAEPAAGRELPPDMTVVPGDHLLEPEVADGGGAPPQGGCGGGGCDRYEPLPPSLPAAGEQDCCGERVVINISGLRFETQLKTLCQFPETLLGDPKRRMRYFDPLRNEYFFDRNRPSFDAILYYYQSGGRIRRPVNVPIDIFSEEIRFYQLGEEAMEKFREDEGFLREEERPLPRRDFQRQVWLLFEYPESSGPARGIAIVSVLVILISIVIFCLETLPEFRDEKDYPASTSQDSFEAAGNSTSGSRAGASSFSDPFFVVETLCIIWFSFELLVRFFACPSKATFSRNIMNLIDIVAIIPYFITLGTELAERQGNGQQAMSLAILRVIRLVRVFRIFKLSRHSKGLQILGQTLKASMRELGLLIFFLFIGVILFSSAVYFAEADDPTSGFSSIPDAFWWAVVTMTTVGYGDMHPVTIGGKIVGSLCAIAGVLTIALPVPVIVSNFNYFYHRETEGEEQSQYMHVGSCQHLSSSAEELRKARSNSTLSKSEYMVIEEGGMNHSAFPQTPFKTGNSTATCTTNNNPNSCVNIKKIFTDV

## O=c1cc(-c2ccc(O)c(O)c2)oc2cc(O)cc(O)c12 [luteolin, 3′,4′,5,7-tetrahydroxyflavone]
Kv1.3 channel; 20 uM concentration
  block of Kv1.3 channel current vs. control: approximately 25%
Kv1.3 channel; 100 uM concentration
  block of Kv1.3 channel current vs. control: 100%
[1]; 4 hours incubation, FIG. 2
  inhibition of CTL cytotoxicity against 264-pulsed T2 target cells: significantly inhibited
[1]
  inhibition of calcein release: inhibition of calcein release
[2]
  blood glucose after treatment: 307 mg/dL
  blood glucose before treatment: 445 mg/dL
  decrease in blood glucose levels: 31%
[3]; 50 mg three times a day (150 mg total), within 24 hr
  decrease in blood glucose levels: 10.2%
[3]; 150 mg three times (450 mg total), 24 hr
  drop in blood glucose: 22.9%
[3]; 250 mg three times (750 mg total), 24 hr
  decrease in glucose: 27.7%
[3]; intermediate dose, one rat, 18 hr
  blood glucose after treatment, one rat: 372 mg/dL
[3]; intermediate dose, one rat, start
  blood glucose before treatment, one rat: 777 mg/dL
[3]; intermediate dose, one rat, within 18 hr
  reduction of blood glucose, one rat: 52%
[3]; over a 24 hour period, 50-250 mg doses
  reduction of hyperglycemia over all doses: 10-28%
[4]; [6]
  average blood glucose after treatment: 389 mg/dL
  average drop in blood glucose levels: 41.1%
[4]; before treatment
  average blood glucose pre-treatment: 660 mg/dL
[4]; rat #3 with esophagial fistula, two weeks
  increase in blood glucose, rat #3: 9.3%

## O=c1c(O)c(-c2ccc(O)c(O)c2)oc2cc(O)cc(O)c12 [quercetin]
[5]; [7]
  distribution phase half-life: 3.8 h
  elimination phase half-life: 16.8 h
  time of peak plasma levels: 2.9 h
[5]; oral
  human absorption: 24%

## insulin [reference compound]
[2]
  blood glucose after treatment: 112 mg/dL
  blood glucose before treatment: 415 mg/dL
  decrease in blood glucose levels: 75%

## O=c1cc(-c2cc(O)c(O)c(O)c2)oc2cc(O)cc(O)c12 [tricetin]
[1]
  inhibition of calcein release: inhibition of calcein release
